Values of other authors in patent publication US6846809B2, “PEI: DNA vector formulations for in vitro and in vivo gene delivery” (Board of Regents, The University of Texas System, priority 2000, dated 2005).
Counter-ions that a name gives are not always drawn. Like-named read-outs stand apart in the source and are kept apart here. One block for each molecule: values may come before it. *1 amine or outer side, *2 acyl side, *3 side chain or, on linkers, in order; H or OH if unused. Where a SMILES comes first, the peptide text is derived from it. Bridges are numbered along the chain shown (N, C = ends). Roman numbers before positions name the chains, in order. [ ]: non-standard residue; d: D form. Actinocin(9to1) = Cc1c2oc3c(C)ccc(C(=O)[*:1])c3nc-2c(C(=O)[*:2])c(N)c1=O; NMeV = CN[C@H](C(=O)O)C(C)C; Sar = CNCC(=O)O

Experiments:
[1] = system: chronic myelogenous leukemia; conditions: previously untreated
multiple myeloma = conditions: oral administration
certain animal tumors = conditions: in vivo
[2] = system: Hodgkin's Disease, testicular tumors, squamous cell cancers
[3] = mouse, in vivo

Molecule: Cc1c2oc3c(C)ccc(C(=O)N[C@@H]4C(=O)N[C@H](C(C)C)C(=O)N5CCC[C@H]5C(=O)N(C)CC(=O)N(C)[C@@H](C(C)C)C(=O)O[C@@H]4C)c3nc-2c(C(=O)N[C@@H]2C(=O)N[C@H](C(C)C)C(=O)N3CCC[C@H]3C(=O)N(C)CC(=O)N(C)[C@@H](C(C)C)C(=O)O[C@@H]2C)c(N)c1=O [Actinomycin D] (I: T[dV]P[Sar][NMeV] / II: T[dV]P[Sar][NMeV]; ester I:1-I:C, II:1-II:C; linker I:N-II:N via Actinocin(9to1))
blood-brain barrier passage (human, in vivo): does not pass the blood-brain barrier
fraction of dose excreted in the urine (human, in vivo): 10%
fraction of dose excreted intact into the bile (human, in vivo): Half of the dose
half-life (human, in vivo): about 36 hours

Molecule: CS(=O)(=O)OCCCCOS(C)(=O)=O [Busulfan, 1,4-butanediol dimethanesulfonate]
adults obtaining hematologic remission [1]: Approximately 90%

Molecule: O=C(O)CCCc1ccc(N(CCCl)CCCl)cc1 [Chlorambucil, 4-[bis(2-chlorethyl)amino] benzenebutanoic acid]
oral / gastrointestinal absorption (human, in vivo): rapidly and completely absorbed
terminal half-life (plasma): about 1.5 hours
time to peak plasma levels (single oral doses of about 0.6 mg/kg to about 1.2 mg/kg): within one hour

Molecule: O.O=P1(N(CCCl)CCCl)NCCCO1 (centres unmarked) [Cyclophosphamide, 2H-1,3,2-Oxazaphosphorin-2-amine, N,N-bis(2-chloroethyl)tetrahydro-, 2-oxide, monohydrate]
stability in the gastrointestinal tract (human, in vivo): stable in the gastrointestinal tract
local tolerance (oral and parental routes): does not cause local vesication, necrosis, phlebitis or even pain

elimination half-life (human, in vivo): about 19 hours
fraction secreted into the bile (human, in vivo): about 40%
half-life of distribution (human, in vivo): 45 min
oral / gastrointestinal absorption (human, in vivo): poor
Molecule: COc1cccc2c1C(=O)c1c(O)c3c(c(O)c1C2=O)C[C@@](O)(C(C)=O)C[C@@H]3O[C@H]1C[C@H](N)[C@H](O)[C@H](C)O1 [Daunorubicin, 5,12-Naphthacenedione, (8S-cis)-8-acetyl-10-[(3-amino-2,3,6-trideoxy-a-L-lyxo-hexanopyranosyl)oxy]-7,8,9,10-tetrahydro-6,8,11-trihydroxy-10-methoxy-, hydrochloride]

Molecule: COc1cccc2c1C(=O)c1c(O)c3c(c(O)c1C2=O)C[C@@](O)(C(=O)CO)C[C@@H]3O[C@H]1C[C@H](N)[C@H](O)[C@H](C)O1 [Doxorubicin, 5,12-Naphthacenedione, (8s-cis)-10-[(3-amino-2,3,6--trideoxy-a-L-lyxo-hexopyranosyl)oxy]-7,8,9,10-tetrahydro-6,8,11-trihydroxy-8-(hydroxyacetyl)-1-methoxy-hydrochloride]
elimination half-life (human, in vivo): about 30 hours
fraction of dose excreted in the urine (human, in vivo): a few percent

Molecule: O=NN(CCCl)C(=O)NC1CCCCC1 [Lomustine, 1-(2-chloro-ethyl)-3-cyclohexyl-1 nitrosourea]
serum half-life of the metabolites (human, in vivo): 16 hours to about 2 days
radioactivity excreted as degradation products within 24 hours (oral radioactive drug, about 30 mg/m^2 to 100 mg/m^2): about half

Molecule: N[C@@H](Cc1ccc(N(CCCl)CCCl)cc1)C(=O)O [Melphalan, 4-[bis(2-chloroethyl)amino]-L-phenylalanine]
patients showing a favorable response (multiple myeloma): about one third to one half

Molecule: CO[C@@]12[C@H](COC(N)=O)C3=C(C(=O)C(C)=C(N)C3=O)N1C[C@@H]1N[C@@H]12 [Mitomycin]
time required to reduce the serum concentration by about 50% (30 mg bolus injection): 17 min
fraction of dose excreted in the urine (human, in vivo): Approximately 10%

fraction of dose recovered in the feces (after biliary excretion): about 10%
distribution into blood cells (human, in vivo): extensively concentrated in platelets
fraction of dose excreted in the urine (human, in vivo): Approximately 15%
Molecule: CC[C@]1(O)C[C@@H]2CN(CCc3c([nH]c4ccccc34)[C@@](C(=O)OC)(c3cc4c(cc3OC)N(C)[C@H]3[C@@](O)(C(=O)OC)[C@H](OC(C)=O)[C@]5(CC)C=CCN6CC[C@]43[C@@H]65)C2)C1 [Vinblastine]

distribution into blood cells (human, in vivo): extensively concentrated in platelets
Molecule: CC[C@]1(O)C[C@H]2CN(CCc3c([nH]c4ccccc34)[C@@](C(=O)OC)(c3cc4c(cc3OC)N(C=O)[C@H]3[C@@](O)(C(=O)OC)[C@H](OC(C)=O)[C@]5(CC)C=CCN6CC[C@]43[C@@H]65)C2)C1 [Vincristine]

Molecule: COc1cccc2c1C(=O)c1c(O)c3c(c(O)c1C2=O)C[C@@](O)([C@H](C)O)C[C@@H]3O[C@H]1C[C@H](N)[C@H](O)[C@H](C)O1 [daunorubicinol]
half-life (human, in vivo): about 27 hours

Molecule: N[C@H](Cc1ccc(N(CCCl)CCCl)cc1)C(=O)O [medphalan]
activity compared with the L-isomer (certain animal tumors): less active against certain animal tumors

Molecule: Bleomycin
fraction of dose excreted in the urine (human, in vivo): 60-70%
time to improvement ([2]; Hodgkin's Disease and testicular tumors): ≤ 2 weeks
time to improvement ([2]; squamous cell cancers): ≤ 3 weeks
concentrations in hematopoietic tissue / bone marrow [3]: low concentrations
concentrations in skin, lungs, kidneys, peritoneum, and lymphatics [3]: high concentrations
